Test results as given in patent publication US5356926A, “3-alkyloxy-, aryloxy-, or arylalkyloxy-benzo [β]thiophene-2-carboxamides as inhibitors of cell adhesion” (Warner-Lambert Company, priority 1993, dated 1994).
Like-named read-outs stand apart in the source and are kept apart here.

Assays:
[1] = tested on: human neutrophil adhesion to TNFα, IL-1α, and LPS-stimulated human umbilical vein endothelial cells; experiment: Inhibition of human neutrophil adhesion to stimulated HUVEC (51Cr-labeled neutrophils); format: cell-based
Text: METHOD FOR DETERMINING THE INHIBITION OF HUMAN NEUTROPHIL ADHESION TO TNFα, IL-1α, AND LPS-STIMULATED HUMAN UMBILICAL VEIN ENDOTHELIAL CELLS BY 3-ALKYLOXY-, ARYLOXY-, OR ARYLALKYLOXY BENZO[b]THIOPHENE-2-CARBOXAMIDES
Neutrophils were isolated from anticoagulant-treated venous blood obtained from healthy human volunteers according to the method of Ferrante and Thong (J. Immunol. Methods 1978;24:389-93).
Second passage human umbilical vein endothelial cells (HUVEC) (Clonetics, San Diego, Calif.) were seeded into Falcon 24-well cell culture plates (Becton Dickinson, Lincoln Park, N.J.) at approximately 2×10^4 cells per well. The cells were grown to confluent monolayers in endothelial basal medium (EBM, Clonetics) supplemented with 5% fetal calf serum (Hyclone Laboratories, Logan, Utah), 10 ng/mL EGF, 1 μg/mL hydrocortisone, 0.4% bovine brain extract (Clonetics) in 5% CO2 at 37° C.
Neutrophils (30×10^6) were labeled for 60 minutes at 37° C. with 100 μCi Na^51 CrO4 (ICN Biomedicals, Costa Mesa, Calif.) in 2.0 mL Ca^2+ - and Mg^2+ -free Hanks' balanced salt solution (HBSS, GIBCO Laboratories, Grand Island, N.Y.). The cells were washed two times in HBSS and suspended in unsupplemented EBM.
Stimulation of HUVEC with tumor necrosis factor-α (TNFα) (Genzyme, Cambridge, Mass.) , interleukin (IL-1α) (Genzyrne) or E. coli 0111:B4 lipopolysaccharide (LPS) (Sigma) in the presence or absence of drug was initiated 4 hours prior to the addition of neutrophils. The suspension medium was unsupplemented EBM or supplemented EBM for studies with cytokines or LPS, respectively. […] Immediately prior to addition of ^51 Cr-labeled neutrophils to the HUVEC monolayers, the cultures were washed with 1 mL unsupplemented media to remove stimulus and/or drug. Neutrophils (5×10^5) were then added to the HUVEC in 0.5 mL unsupplemented media and incubated at 37° C. for 30 minutes. Nonadherent neutrophils were removed by aspiration. Following an additional wash, adherent neutrophils were lysed with 0.5 mL 1N NH4 OH overnight at 37° C. Lysates were collected and the radioactivity in each well was determined by gamma ray spectroscopy.

[2] = tested on: mycobacterium footpad edema; experiment: Inhibition of mycobacterium footpad edema (MFE); format: in vivo, rat; conditions: rats
Procedure: METHOD FOR DETERMINING THE INHIBITION OF MYCOBACTERIUM FOOTPAD EDEMA BY […]HOXY-3-([…]HYLETHOXY) BENZO[b]THIOPHENE-2-CARBOXAMIDE-1-OXIDE Mycobacterium butyricum (5 mg/mL) was prepared by sonication in paraffin oil for 10 minutes in an ice bath. Footpad edema was induced on Day 0 by injecting 0.1 mL of the Mycobacterium mixture into the left hindpaw of lightly anesthetized rats. Swelling in the injected hindpaw was determined by mercury plethysmography on Days 1, 2, and 3. Groups of rats were treated with test compounds (suspended in 0.5% hydroxypropyl methylcellulose with 0.2% Tween 80 or vehicle 1 hour before Mycobacterium injection and on Days 1 and 2. Inhibition of swelling is determined by comparing the change in hindpaw volume in compound- and vehicle-treated rats.

5-Lipoxygenase [3] = biological target: T1, 5-Lipoxygenase (Rattus norvegicus, UniProt P12527); experiment: 5-lipoxygenase inhibition assay (20,000 xg supernatant of RBL cells); format: biochemical; parameters: activity contained in the 20,000 xg supernatant from cultured rat basophilic leukemia (RBL) cells; endogenous in cells; host or cells: RBL (rat basophilic leukemia) cells, 20,000 xg supernatant
T1 sequence (P12527 1-673): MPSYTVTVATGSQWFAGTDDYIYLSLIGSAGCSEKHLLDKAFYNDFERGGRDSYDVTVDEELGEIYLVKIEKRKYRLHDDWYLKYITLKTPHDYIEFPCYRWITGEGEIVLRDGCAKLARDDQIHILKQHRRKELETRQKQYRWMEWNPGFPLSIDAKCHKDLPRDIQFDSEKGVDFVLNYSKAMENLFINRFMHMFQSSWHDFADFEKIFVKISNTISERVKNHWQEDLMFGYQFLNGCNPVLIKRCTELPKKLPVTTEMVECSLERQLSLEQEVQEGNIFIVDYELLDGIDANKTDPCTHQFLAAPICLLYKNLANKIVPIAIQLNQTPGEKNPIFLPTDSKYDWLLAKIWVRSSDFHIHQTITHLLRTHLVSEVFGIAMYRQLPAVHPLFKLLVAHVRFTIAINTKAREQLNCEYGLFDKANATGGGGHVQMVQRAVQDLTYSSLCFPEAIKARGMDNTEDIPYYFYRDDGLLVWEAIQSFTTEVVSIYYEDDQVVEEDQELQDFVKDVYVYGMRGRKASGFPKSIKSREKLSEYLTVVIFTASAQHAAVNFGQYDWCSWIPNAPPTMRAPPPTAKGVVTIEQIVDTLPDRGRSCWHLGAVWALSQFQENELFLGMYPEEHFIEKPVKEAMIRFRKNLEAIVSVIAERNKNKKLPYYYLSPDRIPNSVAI
Procedure: PROTOCOL FOR 5-LIPOXYGENASE INHIBITION ASSAY
Incubations contained 5% (v/v) RBL 20,000 xg supernatant in assay buffer (10 mM BES, 10 mM PIPES, 1 mM EDTA, 0.75 mM CaC12, 1 mMATP, 100 mMNaCl, pH 6.8). DMSO vehicle (2% v/v) with and without inhibitors is preincubated with the enzyme for 20 minutes at 37° C. before initiating the 5-lipoxygenase catalyzed reaction by adding […] [^14 C]arachidonic acid (55.8 mCi/mmol, New England Nuclear, Boston, Mass.) dissolved in 5 μL 0,028% (v/v) aqueous NH4 OH. After 20 minutes of additional incubation at 37° C., reactions are terminated by the addition of three volumes of methanol containing 100 μg triphenylphosphine. Samples are then analyzed by HPLC with radiometric detection for 5-1ipoxygenase reaction products.
All treatments are evaluated in duplicate and percent inhibition is computed by comparing the products formed in treatment incubations to the mean product formation in the vehicle control group.

5-Lipoxygenase [4] = biological target: T1, 5-Lipoxygenase; experiment: ARBL: 5-lipoxygenase (LTB4) in RBL-1 cells; format: cell-based; parameters: endogenous in cells; host or cells: RBL-1 (rat basophilic leukemia); conditions: Table 4; for inhibition at 10 µM: RBL-1, class symbol
Procedure: (§1) The testing methods used are described as follows:
(§2) The rat basophilic leukemia cell line (RBL-1) was obtained from the American Type Culture Collection (Rockville, Md.).
(§3) Radioimmunoassay (RIA) kits of LTB4 and PGF2α were obtained from Arnersham (Arlington Heights, IL) and Seragen (Boston, Mass.), respectively.
(§4) All tissue culture media were obtained from GIBCO (Grand Island, N.Y.).
(§5) RBL-1 cells are grown in suspension culture in Eagle's minimum essential medium supplemented with 12% fetal bovine serum at 37° C. in an incubator supplied with air-5% carbon dioxide. Cells are harvested by centrifugation. They are washed with cold phosphate-buffered saline, pH 7.4 (PBS; NaCl, 7.1 g; Na2 HPO4, 1.15 g; KH2 PO4, 0.2 g; and KCl, 0.2 g/L). Cells are finally suspended in PBS containing 1.0 mM calcium at a density of 2×10^6 cells/mL. Cells are incubated with and without test agent (in DMSO) (1% DMSO is without effect on arachidonic acid metabolism) for 10 minutes at room temperature. Calcium ionophore A23187 (5 μM) is added and cells are incubated for 7 minutes at 37° C. The reaction is stopped by chilling the tubes on ice for 10 minutes. Cells are separated by centrifugation and the supernatant is stored at -20° C. Aliquots (100 μL) are analyzed for LTB4 and PGF2α using radioimmunoassay kits as provided by the supplier.

Cyclooxygenase = experiment: ARBC: cyclooxygenase (PGF2α) in RBL-1 cells; format: cell-based, rat; conditions: Table 4, class symbol
Procedure: as §1, §2, §3, §4, §5

[5] = Table 4, class symbol, read-out: 5-LO % Inhibition at 30 μM

IC50 ([1]; Table 2, footnote b) [µM]	inhibition at 30 µM (5-Lipoxygenase [3]; Table 4, read-out: 5-LO % Inhibition at 30 μM) [%]	IC50 (5-Lipoxygenase [4]; ARBL/ARBC IC50 (μM) or % inhibition at 10 μM, RBL-1 cells, A23187) [µM]	inhibition at 30 µM (5-Lipoxygenase [3]; [5]) [%]	inhibition at 10 µM (5-Lipoxygenase [4]) [%]	SMILES	inhibition at 100 µM ([1]; Table 3, at 100 μM) [%]	ED40 ([2]; Mycobacterium, dosed 1 hour before injection and on Days 1 and 2, read-out: ID40 in mycobacterium footpad edema (MFE)) [mg/kg]	activity in mycobacterium footpad edema (in words) [2]	inhibition at 100 µM ([1]; Table 1, at 100 μM) [%]	ARBC % Inhibition at 10 μM (Cyclooxygenase)
–	–	–	–	–	COc1ccc2c(c1)c(OC(C)C)c(C(N)=O)[s+]2[O-] (centres unmarked) [Example 28, 5-Methoxy-3-(1-methylethoxy)benzo[b]thiophene-2-carboxamide-1-oxide]	83	10.9	active	–	–
50	16	36	–	–	COc1ccc2sc(C(=O)Nc3ccc(C(=O)O)cc3)c(OC(C)C)c2c1 [Example 12, 4-[[[5-Methoxy-3-(1-methylethoxy)benzo[b]thien-2-yl]carbonyl]amino]benzoic acid]	–	–	–	–	–
–	–	–	< 4	< 40	CC(C)Oc1c(C(N)=O)sc2ccccc12 [Example 2, 3-(1-methylethoxy)benzo[b]thiophene-2-carboxamide]	–	–	–	60	N (Less than 40% inhibition at 10 μM)
–	–	–	< 4	< 40	COc1ccc2sc(C(N)=O)c(Oc3ccccc3)c2c1 [Example 9, 5-Methoxy-3-(phenoxy)benzo[b]thiophene-2-carboxamide]	–	–	–	59	N (Less than 40% inhibition at 10 μM)
